The text below walks through data of patent US9315498B2, “Arlethynyl derivatives” (Hoffmann-La Roche Inc., priority 2010, dated 2016).

In the experiment the target is human mGlu5a receptor (Homo sapiens (Human), UniProt P41594). Description: Intracellular Ca2+ mobilization assay (mGlu5 PAM). The note with it: for EC50: HEK-293 cells stably transfected with human mGlu5a, L-glutamate added at EC20 after pre-incubation with test compound, read-out: EC50 (nM) mGlu5PAM; for Emax: maximal response in % of the maximal stimulatory effect obtained with saturating concentrations of L-glutamate, read-out: Eff. (%). Format: cell-based. The procedure, abridged:
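HEK-293 cells stably expressing human mGlu5a at low level were loaded with Fluo-4AM and preincubated 10–30 min at 37 °C with 11-point half-log compound dilutions. L-glutamate was then added at its daily-determined EC20 (typically around 80 μM). Peak fluorescence minus basal, normalized to maximal glutamate effect, was fitted to give EC50, Hill slope and maximal response.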
For orientation: Calcium assays in cells follow changes in intracellular calcium, usually with a dye or a luminescent sensor.

Sequence of human mGlu5a receptor (P41594 other isoform, or with tags, fused parts or gaps): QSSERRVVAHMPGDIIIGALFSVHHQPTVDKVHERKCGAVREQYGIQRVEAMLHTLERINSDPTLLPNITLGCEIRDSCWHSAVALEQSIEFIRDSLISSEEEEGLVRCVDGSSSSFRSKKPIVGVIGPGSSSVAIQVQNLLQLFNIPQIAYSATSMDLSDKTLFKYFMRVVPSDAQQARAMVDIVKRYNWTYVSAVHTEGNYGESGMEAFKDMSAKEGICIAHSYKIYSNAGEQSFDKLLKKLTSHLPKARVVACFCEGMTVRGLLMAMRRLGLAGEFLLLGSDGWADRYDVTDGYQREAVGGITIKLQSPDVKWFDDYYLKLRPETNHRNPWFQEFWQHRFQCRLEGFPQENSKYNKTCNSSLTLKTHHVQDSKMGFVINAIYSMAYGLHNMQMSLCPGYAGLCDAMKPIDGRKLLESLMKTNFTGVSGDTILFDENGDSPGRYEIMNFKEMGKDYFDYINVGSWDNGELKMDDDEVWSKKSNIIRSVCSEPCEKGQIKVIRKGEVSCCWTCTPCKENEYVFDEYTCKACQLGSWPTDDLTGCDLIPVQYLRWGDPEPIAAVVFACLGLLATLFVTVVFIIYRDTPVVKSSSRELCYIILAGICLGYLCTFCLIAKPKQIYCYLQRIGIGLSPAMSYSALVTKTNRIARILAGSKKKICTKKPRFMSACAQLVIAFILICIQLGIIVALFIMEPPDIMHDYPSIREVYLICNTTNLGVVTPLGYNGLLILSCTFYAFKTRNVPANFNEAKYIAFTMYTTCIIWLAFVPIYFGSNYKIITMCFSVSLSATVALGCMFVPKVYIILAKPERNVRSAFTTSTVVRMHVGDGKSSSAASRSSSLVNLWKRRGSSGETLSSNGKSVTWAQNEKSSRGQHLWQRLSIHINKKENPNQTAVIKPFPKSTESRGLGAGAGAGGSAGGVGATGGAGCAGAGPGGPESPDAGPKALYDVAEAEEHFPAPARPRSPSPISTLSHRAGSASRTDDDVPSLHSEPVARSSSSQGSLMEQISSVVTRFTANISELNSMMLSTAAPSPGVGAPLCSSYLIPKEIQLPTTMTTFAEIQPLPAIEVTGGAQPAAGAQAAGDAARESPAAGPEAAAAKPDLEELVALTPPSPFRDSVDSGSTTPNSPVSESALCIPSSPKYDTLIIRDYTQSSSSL

For the compound `CC1(C)CCN(c2cnc(C#Cc3ccccc3)cn2)C(=O)N1` [Example 164, 4,4-Dimethyl-1-(5-(phenylethynyl)pyrazin-2-yl)tetrahydropyrimidin-2(1H)-one], the EC50 came to 329 nM and the Emax turned out to be 89%.
The corresponding values for `CN1C(=O)N(c2cnc(C#Cc3ccccc3)cn2)CCC1(C)C` [Example 165, 3,4,4-Trimethyl-1-(5-(phenylethynyl)pyrazin-2-yl)tetrahydropyrimidin-2(1H)-one] are 36 nM and 55%.
The corresponding values for `CC1(C)CCN(c2cnc(C#Cc3cccc(F)c3)cn2)C(=O)N1` [Example 166, 1-(5-((3-Fluorophenyl)ethynyl)pyrazin-2-yl)-4,4-dimethyltetrahydropyrimidin-2(1H)-one] are 140 nM and 56%.
As for `CN1C(=O)N(c2cnc(C#Cc3cccc(F)c3)cn2)CCC1(C)C` [Example 167, 1-(5-((3-Fluorophenyl)ethynyl)pyrazin-2-yl)-3,4,4-trimethyltetrahydropyrimidin-2(1H)-one], the EC50 was determined as 26 nM and the Emax turned out to be 54%.
The corresponding values for `CC1(C)CCN(c2cnc(C#Cc3ccccc3)cn2)C(=O)O1` [Example 168, 6,6-Dimethyl-3-(5-(phenylethynyl)pyrazin-2-yl)-1,3-oxazinan-2-one] are 15 nM and 41%.
As to `CC1(C)CN(c2ccc(C#Cc3ccccc3)cn2)C(=O)CO1` [Example 172, 6,6-Dimethyl-4-(5-phenylethynyl-pyridin-2-yl)-morpholin-3-one], the EC50 is 29 nM and the Emax was determined as 82%.
In the same order, the values of `O=C1CS(=O)(=O)CCN1c1ccc(C#Cc2ccccc2)cn1` [Example 173, 1,1-Dioxo-4-(5-phenylethynyl-pyridin-2-yl)-thiomorpholin-3-one] are 29 nM and 82%.

For orientation: EC50 means the concentration that produces a half-maximal response.
